Assay results reported in patent publication US20110060010A1, “SALTS OF 3-(4-AMINO-1-OXO-1,3-DIHYDRO-ISOINDOL-2-YL)PIPERIDINE-2,6-DIONE AND DERIVATIVES THEREOF, OR POLYMORPHS OF SALTS, PROCESS FOR PREPARING SAME AND USE THEREOF” (TIANJIN HEMAY BIO-TECH CO., LTD, priority 2008, published 2011).
Values after ≈ are worked out from the molar mass of the structure shown. Where two headings read alike, the source gives them in different places.

Tests used:
[1] = physchem
Procedure: (§1) The sample in each example was scanned with UV spectroscopy in the wavelength range of 190-900 nm. The maximum absorbance was set to 2. All the samples to be determined have the same absorption peak at 304 nm. Although there are other absorption peaks in the range of 205-190 nm, the peak shapes are slightly different and the maximum absorption wavelengths thereof are different. Therefore, the fixed wavelength was determined to be 304 nm in the concentration versus absorbance determination.
(§2) Therefore, this compound was chosen to plot the concentration versus absorbance standard curve.
(§3) To a 100 mL volumetric flask were added the sample in Example 7 (279.26 mg) and distilled water. The volume was determined at 100 ml with distilled water. The concentration of the solution is 2.793 mg/mL. To a 50 mL volumetric flask was added 1 mL, 2 mL, 3 mL and 5 mL of the above solution, respectively. The volume was determined at 50 ml with distilled water. The concentrations of these solutions are 0.056 mg/mL, 0.112 mg/mL, 0.167 mg/mL and 0.279 mg/mL, respectively.
(§4) A small amount of the sample was used to prepare a 5 mL saturated solution. The solution was kept in a constant temperature water bath for 1 hour at 25° C. The supernatant was sampled and diluted to appropriate times according to the range of the standard curve. The concentration was determined by ultraviolet spectrophotometry, and the determined reading was multiplied by the dilution times to obtain the solubility of the sample to be determined.

[2] = 15° C.
Procedure: as §1, §2, §3, §4

[3] = Stability of aqueous solution at room temperature; format: physicochemical; details: 17 mg dissolved in 10 mL of deionized water, kept at room temperature for 12 hours
Procedure: 17 mg of 3-(4-amino-1-oxo-1,3-dihydro-isoindol-2-yl)piperidine-2,6-dione bisulfate tetrahydrate (equivalent to 10 mg of 3-(4-amino-1-oxo-1,3-dihydro-isoindol-2-yl)piperidine-2,6-dione) was dissolved in 10 mL of deionized water and kept at room temperature for 12 hours. The content is higher than 98% of labeled amount.

[4] = water, 15 °C, thermodynamic from solid

Compound: Nc1cccc2c1CN(C1CCC(=O)NC1=O)C2=O (stereo not drawn) [Example 12, 3-(4-amino-1-oxo-1,3-dihydro-isoindol-2-yl)piperidine-2,6-dione]
- solubility at 1 h [1, 4]: 0.57 mg/mL (≈ 2200 µM)

Compound: Br.Nc1cccc2c1CN(C1CCC(=O)NC1=O)C2=O (stereo not drawn) [Example 15]
- Water-solubility [2]: 5.5 mg/mL

Compound: Nc1cccc2c1CN(C1CCC(=O)NC1=O)C2=O.O=[N+]([O-])O (stereo not drawn) [Example 10]
- Water-solubility [2]: 3.68 mg/mL

Compound: Nc1cccc2c1CN(C1CCC(=O)NC1=O)C2=O (stereo not drawn) [Compound (II), in which Y represents H, 3-(4-amino-1-oxo-1,3-dihydro-isoindol-2-yl)piperidine-2,6-dione]
- solubility [1, 4]: 0.29 mg/mL (≈ 1120 µM)

Compound: Nc1cccc2c1CN(C1CCC(=O)NC1=O)C2=O.O=S(=O)(O)c1cccc2ccccc12 (stereo not drawn) [Example 4]
- solubility ([2]; in water): 5.60 mg/mL

Compound: Nc1cccc2c1CN(C1CCC(=O)NC1=O)C2=O.O.O.O.O.O=S(=O)(O)O (stereo not drawn) [Example 7, 3-(4-amino-1-oxo-1,3-dihydro-isoindol-2-yl)piperidine-2,6-dione bisulfate tetrahydrate]
- content (of labeled amount) [3]: higher than 98 % of labeled amount
- solubility at 1 h ([1]; 15 °C, water, thermodynamic from solid): > 1000 mg/mL
- solubility ([1]; water, thermodynamic from solid): > 1000 mg/mL

Compound: Cl.Nc1cccc2c1CN(C1CCC(=O)NC1=O)C2=O (stereo not drawn) [Example 11]
- Water-solubility [2]: 1.23 mg/mL
